Test results reported in patent US20080161188A1, “HERBICIDAL COMPOSITIONS AND METHODS OF CONTROLLING WEED GROWTH” (priority 2006, published 2008).

Tested on: turf (perennial rye grass, fescue, crabgrass, and several unidentified broad-leaf weeds)
Test: Field test plots: rate of control of turf by ready to use glyphosate composition with fatty acid additive
Type: in vivo
Conditions: versus the same compositions without (water control) short chain fatty acid
Procedure: This composition included all of the water necessary to apply for weed control and was not further diluted.
The test plots included several species including perennial rye grass, fescue, crabgrass, and several unidentified broad-leaf weeds. As this is a non-selective test, all growing plants (monocot and broadleaf) were evaluated as one species referred to as “turf.” Test plots were 4-ft by 60 ft rectangles with untreated check plots to either side. Evaluations were made at 3 days, 7 days and 14 days by visually inspecting each plot comparing health and vigor of turf (color and mortality) to adjacent untreated controls.

`CC(O)C(=O)O` (stereo not shown) [Lactic acid, lactic acid] was tested, and the “enhancing the rate of weed control in herbicide compositions” value was “particularly effective”.
